# Assay results as given in patent US20200283742A1, “METHOD FOR IMPROVING ACTIVITY OF PET-DEGRADING ENZYME BY USING ADDITIVE [As Amended]” (KEIO UNIVERSITY, priority 2017, published 2020).
# What was measured:
# PETase [1] = target: T1, PETase (Piscinibacter sakaiensis, UniProt A0A0K8P6T7); assay: PET-hydrolyzing activity of PETase on PET film in presence of surfactant (amount of degradation product MHET by HPLC); format: biochemical, Ideonella sp. No. 201-F6 strain; conditions: for PET-hydrolyzing activity compared with control (FIG. 2): surfactant 0.01% (w/v), pre-incubation 30° C. 1 hour, reaction 3 hours; for Relative activity: 0.01% SDS vs control
# T1 construct: made in house; host or cells: Escherichia coli BL21 Codon Plus (DE3) RIPL
# T1 sequence (A0A0K8P6T7 28-290): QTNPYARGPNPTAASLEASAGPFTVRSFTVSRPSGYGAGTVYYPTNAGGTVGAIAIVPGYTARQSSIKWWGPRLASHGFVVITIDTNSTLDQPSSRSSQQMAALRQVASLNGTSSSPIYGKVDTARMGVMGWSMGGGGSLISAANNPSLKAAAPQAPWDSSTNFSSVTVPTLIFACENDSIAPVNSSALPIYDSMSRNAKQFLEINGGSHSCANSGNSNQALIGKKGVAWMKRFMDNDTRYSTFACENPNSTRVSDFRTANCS
# Protocol: In addition to the optimal conditions, a surfactant was added in a concentration of 0.001 to 0.01 (w/v) %, and the activity was then measured. As surfactants, six types of surfactants, namely. [A] Sodium Cholate (SC), [B] 3-[(3-Cholamidopropyl)dimethylammonio]propanesulfonate (CHAPS), [C] Sodium dodecyl sulfate (SDS), [D] Octylphenol ethoxylate (Triton X-114), [E] Polysorbate 80 (Tween 80), [F] and Dodecyltrimethylammoniumu chloride (DTMA-Cl), were used (FIG. 1). The surfactant, a buffer and a film were added to the reaction system, and the obtained mixture was then pre-incubated at 30° C. for 1 hour. Thereafter, the concentration of the enzyme was set at 50 nM, the film area was set at 3.39 cm^2/mL, and the reaction was carried out for 3 hours.
# A system, to which no surfactants were added, was used as a control.
# The film area was changed, and the enzyme concentration was set at 50 nM or 500 nM, and thereafter, the activity was measured under the optimal conditions and in the presence of 0.01(v/v) % SDS. Moreover, a comparison was made regarding the case of setting the enzyme concentration at 50 nM and the amount of the degradation product (monohydroxyethyl terephthalate (MHET)) depending on the reaction time.
# The amount of the degradation product was measured by reverse phase high performance liquid chromatography (HPLC) in accordance with the method described in International Publication WO 2015/025861.
# The pre-incubation time after addition of SDS was set at 0 or 1 hour, the reaction time was set at 1 hour, the enzyme concentration was set at […], and the film area was set at 3.39 cm^2/mL. Thereafter, a comparison was made in terms of the activity under the optimal conditions.
# The enzyme concentration was set at 500 nM, the SDS concentration and the film area were changed, and the activity under the optimal conditions was then measured.
# PETase [2] = target: T1, PETase; assay: pNPB (p-nitrophenyl-butyrate)-hydrolyzing activity; format: biochemical, Ideonella sp. No. 201-F6 strain; conditions: 0.01 (w/v) % SDS; enzyme 250 nM; substrate pNPB
# Protocol: In the following examples, the activity of PETase (PET-hydrolyzing activity) was measured using, as indicators, the amount of a degradation product and pNPB (p-nitrophenyl-butyrate)-hydrolyzing activity. Hereafter, a method of measuring pNPB (p-nitrophenyl-butyrate)-hydrolyzing activity is described.
# pNPB used as an artificial substrate in the measurement of esterase activity is hydrolyzed into 1-butanoic acid and p-nitrophenol (pNP).
# The pNPB-hydrolyzing activity immediately after purification of the enzyme was measured. The composition of a reaction solution is shown in Table 1. pNPB was dissolved in dimethyl sulfoxide (DMSO). The enzyme was mixed with a buffer, and the obtained mixture was then incubated at 30° C. for 30 minutes. Thereafter, the substrate was added to the reaction mixture, and a change in the absorbance at 425 nm for 1 minute was measured three times. The inclination (ΔAbs) of the measured absorbance change was applied to the following equation to obtain catalyst turnover frequency.
# TOF: Catalyst turnover frequency; ε: Molar absorption coefficient; c: Enzyme concentration; 1: Thickness of solution layer; Δt: Reaction time.
# The p-nitrophenyl-butyrate(pNPB)-hydrolyzing activity was measured in the presence of 0.01 (w/v) % SDS, in addition to the conditions shown in Table 1.
# PETase [3] = target: T1, PETase; assay: Amount of enzyme adsorbed on PET film (SDS-PAGE); design: species or system Ideonella sp. No. 201-F6 strain; conditions: SDS 0.01 to 0.04 (w/v) %; enzyme 500 nM; pre-incubation 1 hour; reaction 3 hours; film area 1.13 cm^2/mL
# Protocol: The amount of the enzyme adsorbed on the film was observed under conditions in which the activity was changed by addition of a surfactant. SDS was added to the reaction system to result in a concentration of 0.01 (w/v) % to 0.04 (w/v) %, in addition to conditions of an enzyme concentration of 500 nM, a pre-incubation time of 1 hour, a reaction time of 3 hours, and a film area of 1.13 cm^2/mL. After completion of the reaction, the film was removed using tweezers, and was then rinsed with distilled water. The film was placed on the lid of a 1.5-mL tube, and thereafter, 10 μL of an SDS-PAGE sample buffer was added thereto. After that, the resultant was left at rest for 10 minutes, and was then centrifuged. The thus centrifuged solution was subjected to SDS-PAGE. Moreover, in addition to the conditions without addition of surfactants, a comparison was made with conditions including addition of DTMA-Cl that was a cationic surfactant.
# [4] = enzyme 50 nM, film area 3.39 cm^2/mL
# [5] = enzyme 50 nM, film area 1.13 cm^2/mL
# [6] = enzyme 50 nM, film area 2.26 cm^2/mL
# [7] = enzyme 50 nM, film area 5.65 cm^2/mL
# [8] = enzyme 50 nM, film area 9.04 cm^2/mL
# [9] = enzyme 50 nM, film area 11.3 cm^2/mL
# [10] = enzyme 500 nM, film area 1.13 cm^2/mL
# [11] = enzyme 500 nM, film area 2.26 cm^2/mL
# [12] = enzyme 500 nM, film area 3.39 cm^2/mL
# [13] = enzyme 500 nM, film area 5.65 cm^2/mL
# [14] = enzyme 500 nM, film area 9.04 cm^2/mL
# [15] = enzyme 500 nM, film area 11.3 cm^2/mL
compound,measurement,setting,value
"CCCCCCCCCCCC[N+](C)(C)C.[Cl-] [DTMA-Cl, Dodecyltrimethylammoniumu chloride]",PET-hydrolyzing activity compared with control (FIG. 2),PETase [1]; [4],the activity was significantly decreased
Polysorbate 80 [Tween 80],PET-hydrolyzing activity compared with control (FIG. 2),PETase [1]; [4],the activity was found with the surfactants other than Tween 80 and DTMA-Cl
"CCCCCCCCCCCCOS(=O)(=O)[O-].[Na+] [SDS, Sodium dodecyl sulfate]",Reduction of pNPB-hydrolyzing activity after addition of SDS (FIG. 4),PETase [2],approximately 5%
same,Relative activity,PETase [1]; [5],2.47 fold
same,Relative activity,PETase [1]; [6],1.99 fold
same,Relative activity,PETase [1]; [4],1.86 fold
same,Relative activity,PETase [1]; [7],1.75 fold
same,Relative activity,PETase [1]; [8],1.99 fold
same,Relative activity,PETase [1]; [9],1.72 fold
same,Relative activity,PETase [1]; [10],2170 fold
same,Relative activity,PETase [1]; [11],50.6 fold
same,Relative activity,PETase [1]; [12],6.01 fold
same,Relative activity,PETase [1]; [13],3.58 fold
same,Relative activity,PETase [1]; [14],3.32 fold
same,Relative activity,PETase [1]; [15],3.11 fold
same,Activity relative to control,"PETase [1]; addition of SDS, enzyme 50 nM, film area 1.13 cm^2/mL",approximately 2.5 times
same,Activity relative to control,"PETase [1]; addition of SDS, enzyme 50 nM, film area 11.3 cm^2/mL",approximately 1.7 times
same,PET-hydrolyzing activity versus control,"PETase [1]; addition of SDS, enzyme 500 nM","the activity was exhibited, although almost no activity was exhibited in the case of the control"
same,Activity upon addition of 0.01% SDS,PETase [1]; [5],793 h⁻¹
same,Activity upon addition of 0.01% SDS,PETase [1]; [6],901 h⁻¹
same,Activity upon addition of 0.01% SDS,PETase [1]; [4],1020 h⁻¹
same,Activity upon addition of 0.01% SDS,PETase [1]; [7],1270 h⁻¹
same,Activity upon addition of 0.01% SDS,PETase [1]; [8],1680 h⁻¹
same,Activity upon addition of 0.01% SDS,PETase [1]; [9],1910 h⁻¹
same,Activity upon addition of 0.01% SDS,PETase [1]; [10],154 h⁻¹
same,Activity upon addition of 0.01% SDS,PETase [1]; [11],260 h⁻¹
same,Activity upon addition of 0.01% SDS,PETase [1]; [12],297 h⁻¹
same,Activity upon addition of 0.01% SDS,PETase [1]; [13],451 h⁻¹
same,Activity upon addition of 0.01% SDS,PETase [1]; [14],660 h⁻¹
same,Activity upon addition of 0.01% SDS,PETase [1]; [15],743 h⁻¹
same,Optimal SDS concentration (FIG. 6),"PETase [1]; enzyme 500 nM, film area of up to 5.65 cm^2/mL",0.02 (w/v) %
same,Optimal SDS concentration (FIG. 6),"PETase [1]; enzyme 500 nM, film area of up to 11.3 cm^2/mL",0.03 (w/v) %
same,Change over time in amount of PET degradation product / enzyme stability (FIG. 3),"PETase [1]; in presence of SDS, enzyme 50 nM, reaction of 3 hours",almost no activity decrease took place
same,Amount of degradation product depending on pre-incubation time (FIG. 5),"PETase [1]; pre-incubation after SDS addition 0 or 1 hour, reaction 1 hour, enzyme 50 nM, film area 3.39 cm^2/mL",the amount of a degradation product was changed depending on the pre-incubation time
same,PET-hydrolyzing activity compared with control (FIG. 2),PETase [1]; [4],approximately two times greater than the activity of the control
same,Amount of enzyme (protein) adsorbed on film (FIG. 7),PETase [3],adsorption of a large amount of protein was confirmed
